In publication PMC5078040 (Oncotarget, 2016):

Legend:
ERK1 = target: T1, ERK1 (Homo sapiens, UniProt P27361); assay: KinomeScan; assay type: binding; conditions: 1uM
T1 construct: purchased DiscoveRx KINOMEscan

DYRK1A = target: T2, DYRK1A (Homo sapiens, UniProt Q13627); assay: KinomeScan; assay type: binding; conditions: 1uM
T2 construct: purchased DiscoveRx KINOMEscan

BMPR1A = target: T3, BMPR1A (Homo sapiens, UniProt P36894); assay: KinomeScan; assay type: binding; conditions: 1uM
T3 construct: purchased DiscoveRx KINOMEscan

PLK1 = target: T4, PLK1 (Homo sapiens, UniProt P53350); assay: KinomeScan; assay type: binding; conditions: 1uM
T4 construct: purchased DiscoveRx KINOMEscan

KIT(L576P) = target: T5, KIT(L576P) (Homo sapiens, UniProt P10721, L576P); assay: KinomeScan; assay type: binding; conditions: 1uM
T5 construct: purchased DiscoveRx KINOMEscan

PIK3CA(I800L) = target: T6, PIK3CA(I800L) (Homo sapiens, UniProt P42336, I800L); assay: KinomeScan; assay type: binding; conditions: 1uM
T6 construct: purchased DiscoveRx KINOMEscan

ULK2 = target: T7, ULK2 (Homo sapiens, UniProt Q8IYT8); assay: KinomeScan; assay type: binding; conditions: 1uM
T7 construct: purchased DiscoveRx KINOMEscan

TRKA = target: T8, TRKA (Homo sapiens, UniProt P04629); assay: KinomeScan; assay type: binding; conditions: 1uM
T8 construct: purchased DiscoveRx KINOMEscan
T8 sequence (P04629 33-796): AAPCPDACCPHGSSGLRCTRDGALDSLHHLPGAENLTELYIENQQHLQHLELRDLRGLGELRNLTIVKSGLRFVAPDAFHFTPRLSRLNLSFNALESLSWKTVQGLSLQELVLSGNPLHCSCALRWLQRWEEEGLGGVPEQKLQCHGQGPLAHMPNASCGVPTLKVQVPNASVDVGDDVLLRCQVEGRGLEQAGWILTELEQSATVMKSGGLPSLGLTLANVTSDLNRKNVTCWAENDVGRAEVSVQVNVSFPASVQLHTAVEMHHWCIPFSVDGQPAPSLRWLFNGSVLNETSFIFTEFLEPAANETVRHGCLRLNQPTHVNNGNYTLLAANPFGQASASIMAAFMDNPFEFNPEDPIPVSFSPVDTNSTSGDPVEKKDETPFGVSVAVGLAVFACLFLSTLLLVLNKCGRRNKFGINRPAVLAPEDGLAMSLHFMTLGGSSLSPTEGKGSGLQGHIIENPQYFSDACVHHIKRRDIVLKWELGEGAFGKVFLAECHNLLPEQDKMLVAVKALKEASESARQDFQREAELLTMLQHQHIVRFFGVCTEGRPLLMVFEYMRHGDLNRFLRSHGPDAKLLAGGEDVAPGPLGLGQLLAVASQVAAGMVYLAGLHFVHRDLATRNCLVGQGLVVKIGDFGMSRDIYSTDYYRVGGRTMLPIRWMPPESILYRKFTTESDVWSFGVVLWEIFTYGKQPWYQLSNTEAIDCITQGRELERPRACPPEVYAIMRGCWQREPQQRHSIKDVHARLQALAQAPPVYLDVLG

MST1R = target: T9, MST1R (Homo sapiens, UniProt Q04912); assay: KinomeScan; assay type: binding; conditions: 1uM
T9 construct: purchased DiscoveRx KINOMEscan

ALK = target: T10, ALK (Homo sapiens, UniProt Q9UM73); assay: KinomeScan; assay type: binding; conditions: 1uM
T10 construct: purchased DiscoveRx KINOMEscan

PLK3 = target: T11, PLK3 (Homo sapiens, UniProt Q9H4B4); assay: KinomeScan; assay type: binding; conditions: 1uM
T11 construct: purchased DiscoveRx KINOMEscan

AXL = target: T12, AXL (Homo sapiens, UniProt P30530); assay: KinomeScan; assay type: binding; conditions: 1uM
T12 construct: purchased DiscoveRx KINOMEscan

NIM1 = target: T13, NIM1 (Homo sapiens, UniProt Q8IY84); assay: KinomeScan; assay type: binding; conditions: 1uM
T13 construct: purchased DiscoveRx KINOMEscan
T13 sequence (Q8IY84 whole entry): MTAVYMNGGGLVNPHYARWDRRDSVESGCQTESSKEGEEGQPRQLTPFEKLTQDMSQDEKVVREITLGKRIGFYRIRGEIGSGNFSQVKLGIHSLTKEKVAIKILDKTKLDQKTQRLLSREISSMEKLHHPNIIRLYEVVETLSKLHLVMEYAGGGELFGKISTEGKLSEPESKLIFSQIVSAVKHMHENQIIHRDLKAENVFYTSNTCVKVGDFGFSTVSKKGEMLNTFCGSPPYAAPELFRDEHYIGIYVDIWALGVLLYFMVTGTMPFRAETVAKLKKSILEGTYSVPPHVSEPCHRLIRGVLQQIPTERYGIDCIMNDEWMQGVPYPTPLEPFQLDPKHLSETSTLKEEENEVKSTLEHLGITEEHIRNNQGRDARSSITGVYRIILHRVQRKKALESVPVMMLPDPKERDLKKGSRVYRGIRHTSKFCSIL

DCAMKL3 = target: T14, DCAMKL3 (Homo sapiens, UniProt Q9C098); assay: KinomeScan; assay type: binding; conditions: 1uM
T14 construct: purchased DiscoveRx KINOMEscan

PIP5K1C = target: T15, PIP5K1C (Homo sapiens, UniProt O60331); assay: KinomeScan; assay type: binding; conditions: 1uM
T15 construct: purchased DiscoveRx KINOMEscan

FGFR1 = target: T16, FGFR1 (Homo sapiens, UniProt P11362); assay: KinomeScan; assay type: binding; conditions: 1uM
T16 construct: purchased DiscoveRx KINOMEscan
T16 sequence (P11362 22-822): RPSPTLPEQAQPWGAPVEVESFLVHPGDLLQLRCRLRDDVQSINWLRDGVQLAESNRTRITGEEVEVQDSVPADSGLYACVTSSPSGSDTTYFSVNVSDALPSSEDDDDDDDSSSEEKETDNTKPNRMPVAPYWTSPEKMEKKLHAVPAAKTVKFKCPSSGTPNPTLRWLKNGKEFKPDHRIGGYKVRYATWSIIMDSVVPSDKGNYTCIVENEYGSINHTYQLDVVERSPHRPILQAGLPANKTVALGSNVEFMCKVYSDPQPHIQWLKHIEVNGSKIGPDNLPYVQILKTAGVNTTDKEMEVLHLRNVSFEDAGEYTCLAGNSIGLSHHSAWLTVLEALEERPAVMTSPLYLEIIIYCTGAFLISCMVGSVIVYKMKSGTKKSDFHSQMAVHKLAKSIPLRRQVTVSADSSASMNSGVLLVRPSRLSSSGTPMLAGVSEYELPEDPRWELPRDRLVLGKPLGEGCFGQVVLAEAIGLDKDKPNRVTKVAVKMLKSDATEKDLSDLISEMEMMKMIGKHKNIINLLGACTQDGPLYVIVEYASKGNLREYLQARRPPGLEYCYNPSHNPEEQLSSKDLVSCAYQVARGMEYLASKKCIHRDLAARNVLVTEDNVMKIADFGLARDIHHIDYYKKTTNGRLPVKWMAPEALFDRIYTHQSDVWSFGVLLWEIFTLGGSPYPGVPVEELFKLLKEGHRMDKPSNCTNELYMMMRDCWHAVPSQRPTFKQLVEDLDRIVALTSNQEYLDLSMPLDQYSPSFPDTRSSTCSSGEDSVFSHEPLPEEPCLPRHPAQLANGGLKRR

MRCKB = target: T17, MRCKB (Homo sapiens, UniProt Q9Y5S2); assay: KinomeScan; assay type: binding; conditions: 1uM
T17 construct: purchased DiscoveRx KINOMEscan

PIP5K2C = target: T18, PIP5K2C (Homo sapiens, UniProt Q8TBX8); assay: KinomeScan; assay type: binding; conditions: 1uM
T18 construct: purchased DiscoveRx KINOMEscan

NDR1 = target: T19, NDR1 (Homo sapiens, UniProt Q15208); assay: KinomeScan; assay type: binding; conditions: 1uM
T19 construct: purchased DiscoveRx KINOMEscan

SBK1 = target: T20, SBK1 (Homo sapiens, UniProt Q52WX2); assay: KinomeScan; assay type: binding; conditions: 1uM
T20 construct: purchased DiscoveRx KINOMEscan

NEK4 = target: T21, NEK4 (Homo sapiens, UniProt P51957); assay: KinomeScan; assay type: binding; conditions: 1uM
T21 construct: purchased DiscoveRx KINOMEscan
T21 sequence (P51957 whole entry): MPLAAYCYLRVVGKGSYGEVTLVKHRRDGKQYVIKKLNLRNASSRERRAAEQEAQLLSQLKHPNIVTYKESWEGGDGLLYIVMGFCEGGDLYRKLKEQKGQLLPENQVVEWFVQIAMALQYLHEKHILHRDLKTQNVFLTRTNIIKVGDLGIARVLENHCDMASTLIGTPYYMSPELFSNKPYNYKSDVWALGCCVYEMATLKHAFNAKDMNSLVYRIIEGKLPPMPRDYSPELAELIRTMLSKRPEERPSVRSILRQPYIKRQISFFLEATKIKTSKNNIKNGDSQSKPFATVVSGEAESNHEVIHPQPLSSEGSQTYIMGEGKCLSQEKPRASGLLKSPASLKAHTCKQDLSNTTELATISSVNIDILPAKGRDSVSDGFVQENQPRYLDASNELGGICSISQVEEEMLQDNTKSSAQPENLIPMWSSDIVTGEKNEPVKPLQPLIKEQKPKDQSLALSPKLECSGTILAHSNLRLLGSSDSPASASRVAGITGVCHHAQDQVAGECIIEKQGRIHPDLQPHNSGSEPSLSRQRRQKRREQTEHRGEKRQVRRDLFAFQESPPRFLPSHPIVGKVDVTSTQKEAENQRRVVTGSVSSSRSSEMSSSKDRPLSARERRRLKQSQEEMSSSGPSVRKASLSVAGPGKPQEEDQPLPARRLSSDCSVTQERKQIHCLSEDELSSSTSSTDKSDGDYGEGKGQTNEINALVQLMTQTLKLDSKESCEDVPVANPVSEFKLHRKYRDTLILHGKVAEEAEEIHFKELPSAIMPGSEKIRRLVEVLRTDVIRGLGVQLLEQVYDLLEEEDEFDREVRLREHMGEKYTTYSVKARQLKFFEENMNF

PIK3CA(M1043I) = target: T22, PIK3CA(M1043I) (Homo sapiens, UniProt P42336, M1043I); assay: KinomeScan; assay type: binding; conditions: 1uM
T22 construct: purchased DiscoveRx KINOMEscan

CSNK1D = target: T23, CSNK1D (Homo sapiens, UniProt P48730); assay: KinomeScan; assay type: binding; conditions: 1uM
T23 construct: purchased DiscoveRx KINOMEscan

KIT = target: T24, KIT (Homo sapiens, UniProt P10721); assay: KinomeScan; assay type: binding; conditions: 1uM
T24 construct: purchased DiscoveRx KINOMEscan

MARK3 = target: T25, MARK3 (Homo sapiens, UniProt P27448); assay: KinomeScan; assay type: binding; conditions: 1uM
T25 construct: purchased DiscoveRx KINOMEscan

CAMK2B = target: T26, CAMK2B (Homo sapiens, UniProt Q13554); assay: KinomeScan; assay type: binding; conditions: 1uM
T26 construct: purchased DiscoveRx KINOMEscan

EPHB3 = target: T27, EPHB3 (Homo sapiens, UniProt P54753); assay: KinomeScan; assay type: binding; conditions: 1uM
T27 construct: purchased DiscoveRx KINOMEscan

PAK3 = target: T28, PAK3 (Homo sapiens, UniProt O75914); assay: KinomeScan; assay type: binding; conditions: 1uM
T28 construct: purchased DiscoveRx KINOMEscan

EPHA2 = target: T29, EPHA2 (Homo sapiens, UniProt P29317); assay: KinomeScan; assay type: binding; conditions: 1uM
T29 construct: purchased DiscoveRx KINOMEscan

MAP4K5 = target: T30, MAP4K5 (Homo sapiens, UniProt Q9Y4K4); assay: KinomeScan; assay type: binding; conditions: 1uM
T30 construct: purchased DiscoveRx KINOMEscan

YES = target: T31, YES (Homo sapiens, UniProt P07947); assay: KinomeScan; assay type: binding; conditions: 1uM
T31 construct: purchased DiscoveRx KINOMEscan

YANK3 = target: T32, YANK3 (Homo sapiens, UniProt Q86UX6); assay: KinomeScan; assay type: binding; conditions: 1uM
T32 construct: purchased DiscoveRx KINOMEscan

CDK4-cyclinD3 = target: T33, CDK4-cyclinD3 (Homo sapiens, UniProt P11802); assay: KinomeScan; assay type: binding; conditions: 1uM
T33 construct: purchased DiscoveRx KINOMEscan
T33 sequence (P11802 whole entry): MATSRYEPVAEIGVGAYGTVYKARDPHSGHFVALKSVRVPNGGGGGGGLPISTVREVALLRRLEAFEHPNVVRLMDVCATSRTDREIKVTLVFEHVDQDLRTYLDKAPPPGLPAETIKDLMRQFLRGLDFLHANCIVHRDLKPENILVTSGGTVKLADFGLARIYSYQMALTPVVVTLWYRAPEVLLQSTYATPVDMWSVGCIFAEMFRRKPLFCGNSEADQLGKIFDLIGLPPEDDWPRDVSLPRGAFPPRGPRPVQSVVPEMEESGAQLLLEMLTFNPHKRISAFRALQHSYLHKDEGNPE
T33 sequence (P30281 whole entry partner): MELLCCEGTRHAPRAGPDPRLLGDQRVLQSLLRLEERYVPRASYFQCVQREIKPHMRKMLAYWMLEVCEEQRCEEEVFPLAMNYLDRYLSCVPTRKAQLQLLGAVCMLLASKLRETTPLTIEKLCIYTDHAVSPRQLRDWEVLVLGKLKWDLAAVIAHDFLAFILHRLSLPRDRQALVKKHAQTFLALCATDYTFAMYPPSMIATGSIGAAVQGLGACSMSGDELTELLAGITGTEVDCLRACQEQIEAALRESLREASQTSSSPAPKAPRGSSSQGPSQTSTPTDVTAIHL

STK36 = target: T34, STK36 (Homo sapiens, UniProt Q9NRP7); assay: KinomeScan; assay type: binding; conditions: 1uM
T34 construct: purchased DiscoveRx KINOMEscan

HASPIN = target: T35, HASPIN (Homo sapiens, UniProt Q8TF76); assay: KinomeScan; assay type: binding; conditions: 1uM
T35 construct: purchased DiscoveRx KINOMEscan
T35 sequence (Q8TF76 whole entry): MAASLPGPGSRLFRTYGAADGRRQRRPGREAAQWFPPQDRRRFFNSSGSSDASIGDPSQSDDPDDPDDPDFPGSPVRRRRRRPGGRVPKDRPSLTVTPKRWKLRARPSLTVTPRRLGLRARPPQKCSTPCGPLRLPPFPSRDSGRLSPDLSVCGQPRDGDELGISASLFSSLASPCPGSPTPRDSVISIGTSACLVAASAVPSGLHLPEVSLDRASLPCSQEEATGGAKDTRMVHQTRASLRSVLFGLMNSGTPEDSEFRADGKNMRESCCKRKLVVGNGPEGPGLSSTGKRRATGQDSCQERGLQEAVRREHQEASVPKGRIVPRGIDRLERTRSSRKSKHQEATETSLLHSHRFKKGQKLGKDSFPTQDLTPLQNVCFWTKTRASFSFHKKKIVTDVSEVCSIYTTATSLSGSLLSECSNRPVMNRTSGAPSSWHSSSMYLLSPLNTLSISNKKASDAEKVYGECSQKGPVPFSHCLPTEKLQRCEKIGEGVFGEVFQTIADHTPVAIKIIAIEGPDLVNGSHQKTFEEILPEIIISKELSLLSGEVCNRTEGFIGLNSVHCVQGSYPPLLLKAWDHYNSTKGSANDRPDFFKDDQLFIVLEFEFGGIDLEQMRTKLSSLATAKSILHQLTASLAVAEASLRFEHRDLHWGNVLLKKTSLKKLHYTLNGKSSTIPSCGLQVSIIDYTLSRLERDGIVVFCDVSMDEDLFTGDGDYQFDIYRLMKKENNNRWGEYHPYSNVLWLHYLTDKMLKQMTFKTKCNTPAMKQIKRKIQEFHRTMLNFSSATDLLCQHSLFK

PRKX = target: T36, PRKX (Homo sapiens, UniProt P51817); assay: KinomeScan; assay type: binding; conditions: 1uM
T36 construct: purchased DiscoveRx KINOMEscan

CAMK1 = target: T37, CAMK1 (Homo sapiens, UniProt Q14012); assay: KinomeScan; assay type: binding; conditions: 1uM
T37 construct: purchased DiscoveRx KINOMEscan

TXK = target: T38, TXK (Homo sapiens, UniProt P42681); assay: KinomeScan; assay type: binding; conditions: 1uM
T38 construct: purchased DiscoveRx KINOMEscan

DAPK2 = target: T39, DAPK2 (Homo sapiens, UniProt Q9UIK4); assay: KinomeScan; assay type: binding; conditions: 1uM
T39 construct: purchased DiscoveRx KINOMEscan

PKNB(M.tuberculosis) = target: T40, PKNB(M.tuberculosis) (Mycobacterium tuberculosis, UniProt P9WI81); assay: KinomeScan; assay type: binding; conditions: 1uM
T40 construct: purchased DiscoveRx KINOMEscan

S6K phosphorylation = assay: Signaling pathway effect examination (western blotting); assay type: cell-based, human; design: dose or concentration left out as unconfirmed; conditions: MOLM13, HT, Namalwa, MEC-1, MEC-2 cells
Experimental: The cells were collected and lysed, and cell lysates were analyzed by western blotting.

[1] = target: T41, RSK2(Kin.Dom.1-N-terminal) (Homo sapiens, UniProt P51812); assay: KinomeScan; assay type: binding; conditions: 1uM
T41 construct: RSK2(Kin.Dom.1-N-terminal); purchased DiscoveRx KINOMEscan

IKK-epsilon = target: T42, IKK-epsilon (Homo sapiens, UniProt Q14164); assay: KinomeScan; assay type: binding; conditions: 1uM
T42 construct: purchased DiscoveRx KINOMEscan
T42 sequence (Q14164 whole entry): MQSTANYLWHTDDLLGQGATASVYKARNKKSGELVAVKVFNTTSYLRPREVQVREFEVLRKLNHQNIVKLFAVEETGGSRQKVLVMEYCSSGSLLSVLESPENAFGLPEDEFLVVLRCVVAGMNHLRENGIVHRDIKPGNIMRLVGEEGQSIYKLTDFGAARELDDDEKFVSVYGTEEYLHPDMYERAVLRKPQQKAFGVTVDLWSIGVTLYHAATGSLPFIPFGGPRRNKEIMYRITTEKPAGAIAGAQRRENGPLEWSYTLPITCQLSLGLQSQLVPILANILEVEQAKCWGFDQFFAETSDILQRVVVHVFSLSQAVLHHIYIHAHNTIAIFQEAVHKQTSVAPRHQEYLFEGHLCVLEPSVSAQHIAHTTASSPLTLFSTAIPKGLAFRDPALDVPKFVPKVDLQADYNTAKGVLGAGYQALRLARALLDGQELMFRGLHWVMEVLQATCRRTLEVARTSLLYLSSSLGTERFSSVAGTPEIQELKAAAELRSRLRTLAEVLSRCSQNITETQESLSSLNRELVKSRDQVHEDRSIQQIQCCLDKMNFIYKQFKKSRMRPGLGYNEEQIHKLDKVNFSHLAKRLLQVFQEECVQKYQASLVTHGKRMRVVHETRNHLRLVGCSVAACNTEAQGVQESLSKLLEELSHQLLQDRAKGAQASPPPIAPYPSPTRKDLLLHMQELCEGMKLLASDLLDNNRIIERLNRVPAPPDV

Cc1nc(NC(=O)[C@@H](N)C(C)C)sc1-c1cnc(Cl)c(NS(=O)(=O)c2ccccc2)c1 [PI3KD-IN-015]
KinomeScan ERK1 (ERK1): 100
KinomeScan DYRK1A (DYRK1A): 89
KinomeScan BMPR1A (BMPR1A): 84
KinomeScan PLK1 (PLK1): 90
KinomeScan KIT(L576P) (KIT(L576P)): 83
KinomeScan PIK3CA(I800L) (PIK3CA(I800L)): 0.5
KinomeScan ULK2 (ULK2): 79
KinomeScan TRKA (TRKA): 96
KinomeScan MST1R (MST1R): 86
KinomeScan ALK (ALK): 100
KinomeScan PLK3 (PLK3): 76
KinomeScan AXL (AXL): 97
KinomeScan NIM1 (NIM1): 100
KinomeScan DCAMKL3 (DCAMKL3): 100
KinomeScan PIP5K1C (PIP5K1C): 72
KinomeScan FGFR1 (FGFR1): 100
KinomeScan MRCKB (MRCKB): 91
KinomeScan PIP5K2C (PIP5K2C): 90
KinomeScan NDR1 (NDR1): 100
KinomeScan SBK1 (SBK1): 66
KinomeScan NEK4 (NEK4): 98
KinomeScan PIK3CA(M1043I) (PIK3CA(M1043I)): 0
KinomeScan CSNK1D (CSNK1D): 79
KinomeScan KIT (KIT): 92
KinomeScan MARK3 (MARK3): 100
KinomeScan CAMK2B (CAMK2B): 91
KinomeScan EPHB3 (EPHB3): 100
KinomeScan PAK3 (PAK3): 92
KinomeScan EPHA2 (EPHA2): 100
KinomeScan MAP4K5 (MAP4K5): 100
KinomeScan YES (YES): 100
KinomeScan YANK3 (YANK3): 97
KinomeScan CDK4-cyclinD3 (CDK4-cyclinD3): 100
KinomeScan STK36 (STK36): 100
KinomeScan HASPIN (HASPIN): 94
KinomeScan PRKX (PRKX): 95
KinomeScan CAMK1 (CAMK1): 98
KinomeScan TXK (TXK): 100
KinomeScan DAPK2 (DAPK2): 97
KinomeScan PKNB(M.tuberculosis) (PKNB(M.tuberculosis)): 79
S6K phosphorylation (S6K phosphorylation): significantly decreased
KinomeScan RSK2(Kin.Dom.1-N-terminal) [1]: 100
KinomeScan IKK-epsilon (IKK-epsilon): 100
